# Tested on: 935938-334-R-J1-PDC complex spheroid viability
# Assay: Anticancer human tumor 935938-334-R-J1-PDC patient-derived small intestine adenocarcinoma cell line growth inhibition [POLQ]
# Conditions: for IC50: curve of first compound; for viability, T/C: stronger effect = lower value
# In short: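 Three-cell-type spheroids modelling solid tumor plus stroma served as the readout system; POL inhibitors were tested individually and in combination, concentration ranges set by clinical Cmax where known.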
# 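Also: spheroids exposed to drugs for seven days before viability read.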
# 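For viability, T/C in this document: 100% = DMSO vehicle control wells.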
smiles,measurement,setting,value
CC(=O)O[C@H]1C(=O)[C@@]2(C)[C@H]([C@H](OC(=O)c3ccccc3)[C@]3(O)C[C@H](OC(=O)[C@H](O)[C@@H](NC(=O)c4ccccc4)c4ccccc4)C(C)=C1C3(C)C)[C@]1(OC(C)=O)CO[C@@H]1C[C@@H]2O + Nc1ccc(C#CCN(C(=O)Cc2ncc(C(F)(F)F)cc2C(F)(F)F)c2ccc(F)cc2)nn1,IC50,second compound 0.0316 µM,< 0.00949 µM
same,IC50,second compound 0.1 µM,< 0.00949 µM
same,IC50,second compound 0.316 µM,< 0.00949 µM
same,IC50,second compound 1 µM,< 0.00949 µM
same,IC50,second compound 3.16 µM,< 0.00949 µM
same,IC50,second compound 10 µM,< 0.00949 µM
same,"viability, T/C","second compound 0.0316 µM, first compound 0.00949 µM",44.6%
same,"viability, T/C","second compound 0.0316 µM, first compound 0.03 µM",17.6%
same,"viability, T/C","second compound 0.0316 µM, first compound 0.0949 µM",13.5%
same,"viability, T/C","second compound 0.0316 µM, first compound 0.3 µM",18.1%
same,"viability, T/C","second compound 0.0316 µM, first compound 0.949 µM",16.1%
same,"viability, T/C","second compound 0.0316 µM, first compound 3 µM",16.3%
same,"viability, T/C","second compound 0.1 µM, first compound 0.00949 µM",34%
same,"viability, T/C","second compound 0.1 µM, first compound 0.03 µM",18%
same,"viability, T/C","second compound 0.1 µM, first compound 0.0949 µM",17.1%
same,"viability, T/C","second compound 0.1 µM, first compound 0.3 µM",17.1%
same,"viability, T/C","second compound 0.1 µM, first compound 0.949 µM",17.8%
same,"viability, T/C","second compound 0.1 µM, first compound 3 µM",21.7%
same,"viability, T/C","second compound 0.316 µM, first compound 0.00949 µM",43%
same,"viability, T/C","second compound 0.316 µM, first compound 0.03 µM",18.5%
same,"viability, T/C","second compound 0.316 µM, first compound 0.0949 µM",14.1%
same,"viability, T/C","second compound 0.316 µM, first compound 0.3 µM",11.7%
same,"viability, T/C","second compound 0.316 µM, first compound 0.949 µM",15.3%
same,"viability, T/C","second compound 0.316 µM, first compound 3 µM",15.9%
same,"viability, T/C","second compound 1 µM, first compound 0.00949 µM",30%
same,"viability, T/C","second compound 1 µM, first compound 0.03 µM",21.3%
same,"viability, T/C","second compound 1 µM, first compound 0.0949 µM",17.1%
same,"viability, T/C","second compound 1 µM, first compound 0.3 µM",15.5%
same,"viability, T/C","second compound 1 µM, first compound 0.949 µM",14.3%
same,"viability, T/C","second compound 1 µM, first compound 3 µM",16.9%
same,"viability, T/C","second compound 3.16 µM, first compound 0.00949 µM",40.9%
same,"viability, T/C","second compound 3.16 µM, first compound 0.03 µM",18.5%
same,"viability, T/C","second compound 3.16 µM, first compound 0.0949 µM",16.3%
same,"viability, T/C","second compound 3.16 µM, first compound 0.3 µM",13.8%
same,"viability, T/C","second compound 3.16 µM, first compound 0.949 µM",18.4%
same,"viability, T/C","second compound 3.16 µM, first compound 3 µM",19.4%
same,"viability, T/C","second compound 10 µM, first compound 0.00949 µM",47.3%
same,"viability, T/C","second compound 10 µM, first compound 0.03 µM",18.7%
same,"viability, T/C","second compound 10 µM, first compound 0.0949 µM",16.7%
same,"viability, T/C","second compound 10 µM, first compound 0.3 µM",15.5%
same,"viability, T/C","second compound 10 µM, first compound 0.949 µM",15.8%
same,"viability, T/C","second compound 10 µM, first compound 3 µM",17.5%
O=C(c1cc(Cc2n[nH]c(=O)c3ccccc23)ccc1F)N1CCN(C(=O)C2CC2)CC1 + Cc1cccc(N(C)C(=O)C2C(O)CCN2c2nc(C)cc(C(F)(F)F)c2C#N)c1,IC50,second compound 0.0316 µM,> 10 µM
same,IC50,second compound 0.1 µM,> 10 µM
same,IC50,second compound 0.316 µM,> 10 µM
same,IC50,second compound 1 µM,> 10 µM
same,IC50,second compound 3.16 µM,> 10 µM
same,IC50,second compound 10 µM,9.21 µM
same,"viability, T/C","second compound 0.0316 µM, first compound 0.0316 µM",72.1%
same,"viability, T/C","second compound 0.0316 µM, first compound 0.1 µM",93.2%
same,"viability, T/C","second compound 0.0316 µM, first compound 0.316 µM",59.6%
same,"viability, T/C","second compound 0.0316 µM, first compound 1 µM",96.7%
same,"viability, T/C","second compound 0.0316 µM, first compound 3.16 µM",74.1%
same,"viability, T/C","second compound 0.0316 µM, first compound 10 µM",65.8%
same,"viability, T/C","second compound 0.1 µM, first compound 0.0316 µM",76.3%
same,"viability, T/C","second compound 0.1 µM, first compound 0.1 µM",81%
same,"viability, T/C","second compound 0.1 µM, first compound 0.316 µM",73.3%
same,"viability, T/C","second compound 0.1 µM, first compound 1 µM",97.3%
same,"viability, T/C","second compound 0.1 µM, first compound 3.16 µM",71.1%
same,"viability, T/C","second compound 0.1 µM, first compound 10 µM",63.7%
same,"viability, T/C","second compound 0.316 µM, first compound 0.0316 µM",92.8%
same,"viability, T/C","second compound 0.316 µM, first compound 0.1 µM",108%
same,"viability, T/C","second compound 0.316 µM, first compound 0.316 µM",89.8%
same,"viability, T/C","second compound 0.316 µM, first compound 1 µM",89.6%
same,"viability, T/C","second compound 0.316 µM, first compound 3.16 µM",69.4%
same,"viability, T/C","second compound 0.316 µM, first compound 10 µM",58.1%
same,"viability, T/C","second compound 1 µM, first compound 0.0316 µM",89.7%
same,"viability, T/C","second compound 1 µM, first compound 0.1 µM",86.8%
same,"viability, T/C","second compound 1 µM, first compound 0.316 µM",135%
same,"viability, T/C","second compound 1 µM, first compound 1 µM",85.1%
same,"viability, T/C","second compound 1 µM, first compound 3.16 µM",78.1%
same,"viability, T/C","second compound 1 µM, first compound 10 µM",69.9%
same,"viability, T/C","second compound 3.16 µM, first compound 0.0316 µM",88.5%
same,"viability, T/C","second compound 3.16 µM, first compound 0.1 µM",99.2%
same,"viability, T/C","second compound 3.16 µM, first compound 0.316 µM",97.5%
same,"viability, T/C","second compound 3.16 µM, first compound 1 µM",85.2%
same,"viability, T/C","second compound 3.16 µM, first compound 3.16 µM",68.8%
same,"viability, T/C","second compound 3.16 µM, first compound 10 µM",54.5%
same,"viability, T/C","second compound 10 µM, first compound 0.0316 µM",95.3%
same,"viability, T/C","second compound 10 µM, first compound 0.1 µM",78.7%
same,"viability, T/C","second compound 10 µM, first compound 0.316 µM",87.2%
same,"viability, T/C","second compound 10 µM, first compound 1 µM",88.2%
same,"viability, T/C","second compound 10 µM, first compound 3.16 µM",82.3%
same,"viability, T/C","second compound 10 µM, first compound 10 µM",47.5%

# — PubChem BioAssay AID1963829 (Molecular Pharmacology Branch, DTP, NCI, 2024)
